pIC50: −log10 of the molar value.

For one test, the target named is T1, human renal renin (Homo sapiens, UniProt P00797).
T1 construct: human renal renin, free from acid proteolytic activity; from tissue; host or cells: human kidney (from the word 'renal')
T1 sequence (P00797 67-406): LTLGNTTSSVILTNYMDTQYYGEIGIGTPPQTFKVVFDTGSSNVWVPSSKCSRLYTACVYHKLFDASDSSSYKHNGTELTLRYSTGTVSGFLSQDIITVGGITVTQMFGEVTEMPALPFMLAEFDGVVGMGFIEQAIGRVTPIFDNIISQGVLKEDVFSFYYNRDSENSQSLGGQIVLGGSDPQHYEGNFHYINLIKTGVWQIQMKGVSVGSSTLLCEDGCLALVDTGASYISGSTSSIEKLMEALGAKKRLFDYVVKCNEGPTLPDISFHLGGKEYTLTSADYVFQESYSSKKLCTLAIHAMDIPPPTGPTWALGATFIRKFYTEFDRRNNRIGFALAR
The experiment in a line: inhibition of human renal renin in vitro, angiotensin I formed measured by radioimmunoassay. The settings on record: compound at 10^-5 M; human renin substrate (angiotensinogen), 37° C., pH 6.0. The format is biochemical. On the procedure:
At the end of the incubation, the amount of angiotensin I formed is measured by radioimmunoassay and the molor concentration required to cause 50% inhibition, expressed as the IC50, is calculated.
What is called % inhibition is the drop in the measured response relative to a control, in per cent. Higher therefore signals a strong effect. Take `CC(C)CCC(=O)NC(CC(O)C(CC(C)C)NC(=O)[C@H](C)NC(=O)[C@H](Cc1ccccc1)NC(=O)OC(C)(C)C)c1ccccc1` (stereo partly drawn) [Example 42, Boc-Phe-Ala amide of 4-amino-3-hydroxy-6-methyl-1-(4-methylvaleryl)amino-1-phenylheptane]: the “% inhibition at 10^-5 M” value came out at 41%.

Staying with this test, now noted: human renal renin with human renin substrate (angiotensinogen), 37° C., pH 6.0.
The term pIC50 denotes −log10 of the IC50, conventionally taken in molar units. “Boc-Phe-dl-3-pyrazolylalanine Amide of (3S,4S)-1-(3-Methylbutylcarbonylamino)-3-hydroxy-4-amino-5-cyclohexylpentane [Example 58]” gave a pIC50 of 8.22.
Same read-out and setting: the same measure for `CC(C)C[C@H](NC(=O)[C@H](Cc1ccccc1)NC(=O)OC(C)(C)C)C(=O)N[C@@H](CC1CCCCC1)C(=O)/C(F)=C/S(=O)(=O)C(C)C` [Example 96, Boc-Phe-Leu amide of (Z,4S)-3-oxo-4-amino-2-fluoro-1-isopropylsulfonyl-5-cyclohexyl-1-pentene]: 7.70; for `CC(C)C[C@H](NC(=O)C(C)NC(=O)C(Cc1ccccc1)NC(=O)OC(C)(C)C)[C@@H](O)CCOc1ccccc1` (stereo partly drawn) [Example 21, Boc-Phe-Ala amide of (3S,4S)-4-amino-3-hydroxy-6-methyl-1-phenoxyheptane]: 5.70.
The same measure, in the same setting: the same measure for `CC(C)CC(NC(=O)C(Cc1ccccc1)NC(=O)OC(C)(C)C)C(=O)N[C@@H](CC1CCCCC1)[C@@H](O)C(F)(F)CS(=O)(=O)C(C)C` (stereo partly drawn) [Example 86, Boc-Phe-Leu amide of (3R,4S)-3-hydroxy-4-amino-2,2-difluoro-1-isopropylsulfonyl-5-cyclohexylpentane]: 8.00; for `CC(C)CCSCC[C@H](O)[C@H](CC(C)C)NC(=O)[C@H](C)NC(=O)[C@H](Cc1ccccc1)NC(=O)OC(C)(C)C` [Example 17, Boc-Phe-Ala amide of (3S,4S)-4-amino-3-hydroxy-1-isoamylmercapto-6-methylheptane]: 5.26.
The same measure, in the same setting: with `CC(C)CCC(=O)NCC(F)(F)[C@H](O)[C@H](CC1CCCCC1)NC(=O)C(CC(C)C)NC(=O)C(Cc1ccccc1)NC(=O)OC(C)(C)C` (stereo partly drawn) [Example 85, Boc-Phe-Leu amide of (3R,4S)-3-hydroxy-4-amino-2,2-difluoro-1-isopentylcarbonylamino-5-cyclohexylpentane] the figure was 7.70; with “Boc-Phe-His amide of (3S,4S)-4-amino-3-hydroxy-11-isoamylsulfonyl-6-methylheptane [Example 22]”, 7.00; with `CC(C)(C)OC(=O)NC(Cc1ccccc1)C(=O)NC(Cc1cnc[nH]1)C(=O)N[C@@H](CC1CCCCC1)[C@@H](O)CCN=[N+]=[N-]` (stereo partly drawn) [Example 125, Boc-Phe-His Amide of (3S,4S)-1-Azido-3-hydroxy-4-amino-5-cyclohexylpentane], 7.70.
Molecule `CC(C)CC(NC(=O)C(Cc1ccccc1)NC(=O)OC(C)(C)C)C(=O)N[C@@H](CC1CCCCC1)[C@@H](O)C(F)=CSC(C)C` (stereo partly drawn) [Example 83(B), Boc-Phe-Leu amide of (3R,4S,EZ)-3-hydroxy-4-amino-2-fluoro-1-isopropylmercapto-5-cyclohexyl-1-pentene] had a pIC50 of 7.30.
`CC(C)C[C@H](NC(=O)[C@H](C)NC(=O)[C@H](Cc1ccccc1)NC(=O)OC(C)(C)C)[C@@H](O)CCS(=O)(=O)CCc1ccccc1` [Example 18, Boc-Phe-Ala amide of (3S,4S)-4-amino-3-hydroxy-6-methyl-1-phenethylsulfonylheptane] had a pIC50 of 5.70.
The molecule `CC(C)CCS(=O)(=O)CC[C@H](O)[C@H](CC(C)C)NC(=O)[C@H](C)NC(=O)[C@H](Cc1ccccc1)NC(=O)OC(C)(C)C` [Example 19, Boc-Phe-Ala amide of (3S,4S)-4-amino-3-hydroxy-1-isoamylsulfonyl-6-methylheptane] gave a pIC50 of 5.60.
Molecule `CC(C)CCC(=O)NCC(F)(F)C(=O)[C@H](CC1CCCCC1)NC(=O)[C@H](CC(C)C)NC(=O)[C@H](Cc1ccccc1)NC(=O)OC(C)(C)C` [Example 94, Boc-Phe-Leu amide of (4S)-3-oxo-4-amino-2,2-difluoro-1-isopentylcarbonylamino-5-cyclohexylpentane] had a pIC50 of 8.70.
As for `CC(C)C[C@H](NC(=O)C(C)NC(=O)C(Cc1ccccc1)NC(=O)OC(C)(C)C)[C@@H](O)CCSCCc1ccccc1` (stereo partly drawn) [Example 16, Boc-Phe-Ala amide of (3S,4S)-4-amino-3-hydroxy-6-methyl-1-phenethylmercaptoheptane], the pIC50 was 5.40.
As for `CC(C)CC(NC(=O)C(Cc1ccccc1)NC(=O)OC(C)(C)C)C(=O)N[C@@H](CC1CCCCC1)[C@@H](O)C(F)=CS(=O)(=O)C(C)C` (stereo partly drawn) [Example 87, Boc-Phe-Leu amide of (3R,4S,EZ)-3-hydroxy-4-amino-2-fluoro-1-isopropyl-sulfonyl-5-cyclohexyl-1- pentene], the pIC50 is 8.35.
“Boc-Phe-3-methyl-His Amide of (3S,4S)-1-(3-Methylbutylcarbonylamino)-3-hydroxy-4-amino-5-cyclohexylpentane [Example 52]” gave a pIC50 of 7.82.
The same measure, in the same setting: with `CC(C)CCC(=O)NCC[C@H](O)[C@H](CC1CCCCC1)NC(=O)C(C)NC(=O)C(Cc1ccccc1)NC(=O)OC(C)(C)C` (stereo partly drawn) [Example 34, Boc-Phe-Ala Amide of (3S,4S)-1-(3-Methylbutylcarbonylamino)-3-hydroxy-4-amino-5-cyclohexylpentane] the figure was 7.52; with `CC(C)CCC(=O)NCC[C@H](O)[C@H](CC1CCCCC1)NC(=O)C(Cc1ccncn1)NC(=O)[C@H](Cc1ccccc1)NC(=O)OC(C)(C)C` (mixture of isomers) [Example 62, Boc-Phe-dl-4-pyrimidinylalanine Amide of (3S,4S)-1-(3-Methylbutylcarbonylamino)-3-hydroxy-4-amino-5-cyclohexylpentane], 7.70.
The molecule `CC(C)C[C@H](NC(=O)[C@H](Cc1ccccc1)NC(=O)OC(C)(C)C)C(=O)N[C@@H](CC1CCCCC1)[C@@H](O)C(F)(F)CSC(C)C` [Example 83(A), Boc-Phe-Leu amide of (3R,4S)-3-hydroxy-4-amino-2,2-difluoro-1-isopropylmercapto-5-cyclohexylpentane] gave a negative-log IC50 (pIC50) of 7.60.
`CCCSCC(=O)NCC[C@H](O)[C@H](CC1CCCCC1)NC(=O)C(Cc1cnc[nH]1)NC(=O)C(Cc1ccccc1)NC(=O)OC(C)(C)C` (stereo partly drawn) [Example 67, Boc-Phe-His Amide of (3S,4S)-1-(2-Propylmercaptoacetylamino)-3-hydroxy-4-amino-5-cyclohexylpentane] had a pIC50 of 7.60.
`CC(C)CCNC(=O)C(CC(O)C(CC(C)C)NC(=O)C(C)NC(=O)C(Cc1ccccc1)NC(=O)OC(C)(C)C)c1ccccc1` (stereo not drawn) [Example 46, Boc-Phe-Ala amide of 5-amino-4-hydroxy-77-methyl-2-phenyloctanoic acid isoamyl amide]: the pIC50 is 5.52.
For `CC(C)S(=O)(=O)NCC[C@H](O)[C@H](CC1CCCCC1)NC(=O)C(Cc1cnc[nH]1)NC(=O)C(Cc1ccccc1)NC(=O)OC(C)(C)C` (stereo partly drawn) [Example 50, Boc-Phe-His Amide of (3S,4S)-1-(2-propylsulfonylamino)-3-hydroxy-4-amino-5-cyclohexylpentane], the negative logarithm of the IC50 (pIC50) is 7.60.
Regarding `CC(C)C[C@H](NC(=O)[C@H](Cc1ccccc1)NC(=O)OC(C)(C)C)C(=O)N[C@@H](CC1CCCCC1)C(=O)C(F)(F)CN=[N+]=[N-]` [Example 88, Boc-Phe-Leu amide of (4S)-3-oxo-4-amino-2,2-difluoro-1-azido-5-cyclohexylpentane], the pIC50 was 8.60.
Molecule `CCCS(=O)(=O)CC(=O)NCC[C@H](O)[C@H](CC1CCCCC1)NC(=O)[C@H](Cc1cnc[nH]1)NC(=O)[C@H](Cc1ccccc1)NC(=O)OC(C)(C)C` [Example 68, Boc-Phe-His Amide of (3S,4S)-1-(2-Propylsulfonylacetylamino)-3-hydroxy-4-amino-5-cyclohexylpentane] showed a pIC50 of 7.70.
The molecule `CC(C)CCC(=O)CC[C@H](O)[C@H](CC(C)C)NC(=O)[C@H](C)NC(=O)[C@H](Cc1ccccc1)NC(=O)OC(C)(C)C` [Example 30, Boc-Phe-Ala amide of (4S,5S)-4-amino-2,11-dimethyl-5-hydroxy-8-oxododecane] showed a pIC50 of 5.60.
Take `CC(C)CCC(=O)NCC[C@H](O)[C@H](CC1CCCCC1)NC(=O)C(Cc1cscn1)NC(=O)C(Cc1ccccc1)NC(=O)OC(C)(C)C` (mixture of isomers) [Example 59, Boc-Phe-dl-4-thiazolylalanine Amide of (3S,4S)-1-(3-Methylbutylcarbonylamino)-3-hydroxy-4-amino-5-cyclohexylpentane]: the pIC50 is 8.00.
On to `CC(C)CCC(=O)NCC[C@H](O)[C@H](CC1CCCCC1)NC(=O)[C@H](Cc1cnc[nH]1)NC(=O)[C@H](Cc1ccccc1)NC(=O)OC(C)(C)C` [Example 35, Boc-Phe-His Amide of (3S,4S)-1-(3-Methylbutylcarbonylamino)-3-hydroxy-4-amino-5-cyclohexylpentane], for which the pIC50 was 7.82.
The same measure, in the same setting: with `CC(C)C[C@H](NC(=O)C(Cc1cnc[nH]1)NC(=O)C(Cc1ccccc1)NC(=O)OC(C)(C)C)[C@@H](O)CCS(=O)(=O)CCc1ccccc1` (stereo partly drawn) [Example 23, Boc-Phe-His amide of (3S,4S)-4-amino-3-hydroxy-6-methyl-1-phenethylsulfonylheptane] the figure was 7.10.
The same measure, in the same setting: with `CC(C)C[C@H](NC(=O)[C@H](Cc1ccccc1)NC(=O)OC(C)(C)C)C(=O)N[C@@H](CC1CCCCC1)[C@@H](O)C(F)(F)CN=[N+]=[N-]` [Example 78, Boc-Phe-Leu amide of (3R,4S)-3-hydroxy-4-amino-2,2-difluoro-1-azido-5-cyclohexylpentane] the figure was 7.52.

These data come from patent publication US4857507A, “Angiotensinogen analogs” (Abbott Laboratories, priority 1987, dated 1989).
